Test results reported in US11254668B2, “Pyrazolo[1,5-A]pyrazin-4-yl and related derivatives” (Pfizer Inc., priority 2017, dated 2022).

What was measured:
Type in all cases: biochemical
TYK2 = TYK2 (Homo sapiens (Human), UniProt P29597); test: JAK Caliper Enzyme Assay at 1 mM ATP, TYK2
Outline: (§1)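 Inhibition is measured as reduced phosphorylation of a synthetic peptide by the recombinant human kinase domain at 1 mM ATP. Conditions give 20–30% conversion at room temperature before EDTA quench, and on-chip separation of labelled substrate and product yields percent conversion for dose–response plotting.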

JAK1 = JAK1 (Homo sapiens (Human), UniProt P23458); test: JAK Caliper Enzyme Assay at 1 mM ATP, JAK1
Sequence of JAK1 (P23458 875-1153): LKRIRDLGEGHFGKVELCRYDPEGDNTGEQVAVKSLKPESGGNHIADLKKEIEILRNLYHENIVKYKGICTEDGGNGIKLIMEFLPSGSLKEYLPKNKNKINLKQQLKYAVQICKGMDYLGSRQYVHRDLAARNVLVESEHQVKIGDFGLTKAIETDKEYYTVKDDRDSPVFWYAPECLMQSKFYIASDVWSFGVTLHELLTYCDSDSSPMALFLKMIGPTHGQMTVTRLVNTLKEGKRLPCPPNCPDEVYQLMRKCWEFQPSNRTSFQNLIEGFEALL
Outline: (§2)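 Recombinant human kinase domains phosphorylate a fluorescent synthetic peptide at 1 mM ATP, room temperature, with enzyme and time tuned for 20-30% conversion; EDTA-stopped. Product/substrate separated by microfluidic mobility shift; percent effect versus DMSO and positive controls fitted to IC50 (nM).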

JAK2 = JAK2 (Homo sapiens (Human), UniProt O60674); test: JAK Caliper Enzyme Assay at 1 mM ATP, JAK2
Sequence of JAK2 (O60674 849-1124): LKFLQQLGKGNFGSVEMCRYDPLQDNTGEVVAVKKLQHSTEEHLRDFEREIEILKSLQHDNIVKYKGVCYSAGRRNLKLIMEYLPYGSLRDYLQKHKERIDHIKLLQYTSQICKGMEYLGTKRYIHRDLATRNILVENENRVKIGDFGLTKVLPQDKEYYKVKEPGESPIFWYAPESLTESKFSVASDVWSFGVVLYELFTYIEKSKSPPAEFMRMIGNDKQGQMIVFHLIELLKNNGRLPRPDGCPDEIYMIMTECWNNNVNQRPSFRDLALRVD
Outline: as §1

JAK3 = JAK3 (Homo sapiens (Human), UniProt P52333); test: JAK Caliper Enzyme Assay at 1 mM ATP, JAK3
Sequence of JAK3 (P52333 822-1111): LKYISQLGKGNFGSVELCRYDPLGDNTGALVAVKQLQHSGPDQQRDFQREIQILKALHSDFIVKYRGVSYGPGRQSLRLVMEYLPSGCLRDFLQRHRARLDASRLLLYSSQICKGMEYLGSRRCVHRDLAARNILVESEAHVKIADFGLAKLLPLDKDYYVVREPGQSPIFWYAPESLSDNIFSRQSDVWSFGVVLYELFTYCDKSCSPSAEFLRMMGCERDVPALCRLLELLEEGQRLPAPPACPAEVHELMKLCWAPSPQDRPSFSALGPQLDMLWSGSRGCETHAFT
Outline: as §2

Sequence of TYK2 (P29597 897-1176): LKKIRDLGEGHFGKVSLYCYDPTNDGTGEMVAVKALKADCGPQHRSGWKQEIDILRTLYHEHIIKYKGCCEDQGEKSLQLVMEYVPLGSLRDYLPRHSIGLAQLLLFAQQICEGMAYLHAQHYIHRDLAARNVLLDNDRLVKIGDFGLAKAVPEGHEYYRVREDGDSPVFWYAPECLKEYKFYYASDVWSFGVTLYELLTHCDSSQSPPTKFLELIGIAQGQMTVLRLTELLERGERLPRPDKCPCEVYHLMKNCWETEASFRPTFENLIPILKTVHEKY

Row | Compound | IC50 (TYK2) [nM] | IC50 (JAK1) [nM] | IC50 (JAK2) [nM] | IC50 (JAK3) [nM]
1 | CS(=O)(=O)N1CC(CC#N)(n2ccc(-c3nc(-c4ccc(O)cc4)cc4ncccc34)n2)C1 [Example 254, [3-{3-[7-(4-hydroxyphenyl)-1,6-naphthyridin-5-yl]-1H-pyrazol-1-yl}-1-(methylsulfonyl)azetidin-3-yl]acetonitrile] | 11 | 237 | 205 | > 10000
2 | CS(=O)(=O)N1CC(CC#N)(n2ccc(-c3nc(-c4ccccc4CO)cc4ncccc34)n2)C1 [Example 255, [3-(3-{7-[2-(hydroxymethyl)phenyl]-1,6-naphthyridin-5-yl}-1H-pyrazol-1-yl)-1-(methylsulfonyl)azetidin-3-yl]acetonitrile] | 3170 | > 10000 | > 10000 | > 10000
3 | CS(=O)(=O)N1CC(CC#N)(n2ccc(-c3nc(-c4ccccc4F)cc4ncccc34)n2)C1 [Example 258, [3-{3-[7-(2-fluorophenyl)-1,6-naphthyridin-5-yl]-1H-pyrazol-1-yl}-1-(methylsulfonyl)azetidin-3-yl]acetonitrile] | 255 | > 10000 | > 10000 | > 10000
4 | CS(=O)(=O)N1CC(CC#N)(n2ccc(-c3nc(-c4ccc(F)cc4O)cc4ncccc34)n2)C1 [Example 259, [3-{3-[7-(4-fluoro-2-hydroxyphenyl)-1,6-naphthyridin-5-yl]-1H-pyrazol-1-yl}-1-(methylsulfonyl)azetidin-3-yl]acetonitrile] | 19 | > 10000 | 566 | > 10000
5 | CS(=O)(=O)N1CC(CC#N)(n2ccc(-c3nc(-c4ccc(O)c(F)c4)cc4ncccc34)n2)C1 [Example 260, [3-{3-[7-(3-fluoro-4-hydroxyphenyl)-1,6-naphthyridin-5-yl]-1H-pyrazol-1-yl}-1-(methylsulfonyl)azetidin-3-yl]acetonitrile] | 27 | 198 | 325 | > 10000
6 | CS(=O)(=O)N1CC(CC#N)(n2ccc(-c3nc(-c4cc(O)cc(F)c4)cc4ncccc34)n2)C1 [Example 261, [3-{3-[7-(3-fluoro-5-hydroxyphenyl)-1,6-naphthyridin-5-yl]-1H-pyrazol-1-yl}-1-(methylsulfonyl)azetidin-3-yl]acetonitrile] | 118 | > 10000 | > 10000 | > 10000
7 | CS(=O)(=O)N1CC(CC#N)(n2ccc(-c3nc(-c4cc(F)ccc4O)cc4ncccc34)n2)C1 [Example 262, [3-{3-[7-(5-fluoro-2-hydroxyphenyl)-1,6-naphthyridin-5-yl]-1H-pyrazol-1-yl}-1-(methylsulfonyl)azetidin-3-yl]acetonitrile] | 242 | > 10000 | > 10000 | > 10000
8 | CCN1CC(CC#N)(n2ccc(-c3nc(C4=CCOCC4)cc4ncccc34)n2)C1 [Example 263, (3-{3-[7-(3,6-dihydro-2H-pyran-4-yl)-1,6-naphthyridin-5-yl]-1H-pyrazol-1-yl}-1-ethylazetidin-3-yl)acetonitrile] | 1390 | > 10000 | 9570 | > 10000
9 | CCN1CC(CC#N)(n2ccc(-c3nc(N4CCOCC4)cc4ncccc34)n2)C1 [Example 264, (1-ethyl-3-{3-[7-(morpholin-4-yl)-1,6-naphthyridin-5-yl]-1H-pyrazol-1-yl}azetidin-3-yl)acetonitrile] | 6990 | > 10000 | > 10000 | > 10000
10 | CCN1CC(CC#N)(n2ccc(-c3nc(N4CCCC4)cc4ncccc34)n2)C1 [Example 265, (1-ethyl-3-{3-[7-(pyrrolidin-1-yl)-1,6-naphthyridin-5-yl]-1H-pyrazol-1-yl}azetidin-3-yl)acetonitrile] | 4820 | > 10000 | > 10000 | > 10000
11 | N#CCC1(n2ccc(-c3nc(Oc4cccc(N)n4)cc4ncccc34)n2)CC(C#N)C1 (stereo not drawn) [Example 266, trans-3-(3-{7-[(6-aminopyridin-2-yl)oxy]-1,6-naphthyridin-5-yl}-1H-pyrazol-1-yl)-3-(cyanomethyl)cyclobutanecarbonitrile] | 1910 | > 10000 | 3320 | > 10000
12 | Cc1cc(-c2nc(-c3ccn[nH]3)cc3ncccc23)nn1C1(CC#N)CN(S(C)(=O)=O)C1 [Example 267, [3-{5-methyl-3-[7-(1H-pyrazol-5-yl)-1,6-naphthyridin-5-yl]-1H-pyrazol-1-yl}-1-(methylsulfonyl)azetidin-3-yl]acetonitrile] | 57 | 2950 | 843 | > 10000
13 | Cc1cc(-c2nc(-c3cc[nH]n3)cc3ncccc23)nn1[C@]1(CC#N)C[C@H](C#N)C1 [Example 268, cis-3-(cyanomethyl)-3-{5-methyl-3-[7-(1H-pyrazol-3-yl)-1,6-naphthyridin-5-yl]-1H-pyrazol-1-yl}cyclobutanecarbonitrile] | 8 | 81 | 33 | 7780
14 | Cc1cc(-c2nc(-c3cc[nH]n3)cc3ncccc23)nn1[C@]1(CC#N)C[C@@H](C#N)C1 [Example 269, trans-3-(cyanomethyl)-3-{5-methyl-3-[7-(1H-pyrazol-3-yl)-1,6-naphthyridin-5-yl]-1H-pyrazol-1-yl}cyclobutanecarbonitrile] | 27 | 1380 | 447 | > 10000
15 | Cc1cc(-c2nc(-c3cc(N)n(C)n3)cc3ncccc23)nn1[C@]1(CC#N)C[C@@H](C#N)C1 [Example 270, trans-3-{3-[7-(5-amino-1-methyl-1H-pyrazol-3-yl)-1,6-naphthyridin-5-yl]-5-methyl-1H-pyrazol-1-yl}-3-(cyanomethyl)cyclobutanecarbonitrile] | 46 | 6900 | 574 | > 10000
16 | Cc1cc(-c2nc(-c3cc(N)n(C)n3)cc3ncccc23)nn1[C@]1(CC#N)C[C@H](C#N)C1 [Example 271, cis-3-{3-[7-(5-amino-1-methyl-1H-pyrazol-3-yl)-1,6-naphthyridin-5-yl]-5-methyl-1H-pyrazol-1-yl}-3-(cyanomethyl)cyclobutanecarbonitrile] | 16 | 429 | 46 | 7070
17 | Cc1cc(-c2nc(-c3cn[nH]c3)cc3ncccc23)nn1C1(CC#N)CN(S(C)(=O)=O)C1 [Example 272, [3-{5-methyl-3-[7-(1H-pyrazol-4-yl)-1,6-naphthyridin-5-yl]-1H-pyrazol-1-yl}-1-(methylsulfonyl)azetidin-3-yl]acetonitrile] | 120 | 3790 | 1390 | > 10000
18 | Cc1cc(-c2nc(-c3cn[nH]c3)cc3ncccc23)nn1[C@]1(CC#N)C[C@@H](C#N)C1 [Example 273, trans-3-(cyanomethyl)-3-{5-methyl-3-[7-(1H-pyrazol-4-yl)-1,6-naphthyridin-5-yl]-1H-pyrazol-1-yl}cyclobutanecarbonitrile] | 49 | 786 | 311 | > 10000
19 | Cc1cc(-c2nc(-c3cn[nH]c3)cc3ncccc23)nn1[C@]1(CC#N)C[C@H](C#N)C1 [Example 274, cis-3-(cyanomethyl)-3-{5-methyl-3-[7-(1H-pyrazol-4-yl)-1,6-naphthyridin-5-yl]-1H-pyrazol-1-yl}cyclobutanecarbonitrile] | 9 | 60 | 34 | 3360
20 | Cc1cc(-c2nc(-c3cn[nH]c3N)cc3ncccc23)nn1[C@]1(CC#N)C[C@@H](C#N)C1 [Example 275, trans-3-{3-[7-(5-amino-1H-pyrazol-4-yl)-1,6-naphthyridin-5-yl]-5-methyl-1H-pyrazol-1-yl}-3-(cyanomethyl)cyclobutanecarbonitrile] | 13 | 38 | 20 | 2650
21 | Cc1cn([C@]2(CC#N)C[C@@H](C#N)C2)nc1-c1nc(-c2cn[nH]c2N)cc2ncccc12 [Example 276, trans-3-{3-[7-(5-amino-1H-pyrazol-4-yl)-1,6-naphthyridin-5-yl]-4-methyl-1H-pyrazol-1-yl}-3-(cyanomethyl)cyclobutanecarbonitrile] | 144 | 3480 | 947 | > 10000
22 | Cc1cn([C@]2(CC#N)C[C@H](C#N)C2)nc1-c1nc(-c2cc(N)n(C)n2)cc2ncccc12 [Example 277, cis-3-{3-[7-(5-amino-1-methyl-1H-pyrazol-3-yl)-1,6-naphthyridin-5-yl]-4-methyl-1H-pyrazol-1-yl}-3-(cyanomethyl)cyclobutanecarbonitrile] | 675 | > 10000 | 2300 | > 10000
23 | Cc1cn([C@]2(CC#N)C[C@@H](C#N)C2)nc1-c1nc(-c2cc(N)n(C)n2)cc2ncccc12 [Example 278, trans-3-{3-[7-(5-amino-1-methyl-1H-pyrazol-3-yl)-1,6-naphthyridin-5-yl]-4-methyl-1H-pyrazol-1-yl}-3-(cyanomethyl)cyclobutanecarbonitrile] | 1430 | > 10000 | 9840 | > 10000
24 | Cn1cc(-c2cc3ncccc3c(-n3ccc(C4(CC#N)CN(CC(F)(F)F)C4)n3)n2)cn1 [Example 279, [3-{1-[7-(1-methyl-1H-pyrazol-4-yl)-1,6-naphthyridin-5-yl]-1H-pyrazol-3-yl}-1-(2,2,2-trifluoroethyl)azetidin-3-yl]acetonitrile] | 194 | 6340 | 686 | > 10000
